The text below walks through data of EP1100483B1, “GLUCOCORTICOID-SELECTIVE ANTI-INFLAMMATORY AGENTS” (Abbott Laboratories, priority 1998, dated 2000).

The assay has as its target T1, minerocorticoid receptor (MR) (Homo sapiens, UniProt P08235).
T1 construct: made in house; host or cells: SF21 insect cells (baculovirus)
T1 sequence (P08235 1-984): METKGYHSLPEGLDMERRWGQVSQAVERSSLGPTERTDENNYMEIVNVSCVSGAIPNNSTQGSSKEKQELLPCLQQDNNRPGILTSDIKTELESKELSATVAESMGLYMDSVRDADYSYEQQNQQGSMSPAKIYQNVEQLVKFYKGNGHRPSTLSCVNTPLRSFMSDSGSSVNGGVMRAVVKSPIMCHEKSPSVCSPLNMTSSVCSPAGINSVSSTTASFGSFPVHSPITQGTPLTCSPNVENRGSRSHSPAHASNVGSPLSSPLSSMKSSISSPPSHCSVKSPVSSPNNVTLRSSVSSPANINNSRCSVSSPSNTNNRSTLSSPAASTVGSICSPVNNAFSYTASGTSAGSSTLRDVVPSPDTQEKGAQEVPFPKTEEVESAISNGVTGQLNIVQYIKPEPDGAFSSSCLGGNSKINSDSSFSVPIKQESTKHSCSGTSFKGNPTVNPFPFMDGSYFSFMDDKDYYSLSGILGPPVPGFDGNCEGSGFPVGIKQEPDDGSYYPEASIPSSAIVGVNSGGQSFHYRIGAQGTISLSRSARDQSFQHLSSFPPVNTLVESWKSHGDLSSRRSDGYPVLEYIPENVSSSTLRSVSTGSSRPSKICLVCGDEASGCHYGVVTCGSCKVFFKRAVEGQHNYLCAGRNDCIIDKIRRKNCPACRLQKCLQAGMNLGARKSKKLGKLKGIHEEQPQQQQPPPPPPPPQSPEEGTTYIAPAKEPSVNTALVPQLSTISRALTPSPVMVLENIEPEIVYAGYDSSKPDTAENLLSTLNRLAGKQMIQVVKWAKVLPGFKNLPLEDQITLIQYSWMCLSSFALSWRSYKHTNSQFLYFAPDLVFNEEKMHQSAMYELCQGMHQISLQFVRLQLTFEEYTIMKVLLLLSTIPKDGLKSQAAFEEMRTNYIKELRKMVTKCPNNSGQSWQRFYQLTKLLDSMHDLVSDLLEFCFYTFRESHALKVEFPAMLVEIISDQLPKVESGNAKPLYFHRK
Description: soluble minerocorticoid receptor (MR) binding assay, [3H]-aldosterone competition. As to conditions: 3-4 nM [3H]-aldosterone, 4 °C for 18 hours; Cheng-Prusoff. The source says: For soluble minerocorticoid receptor (MR) binding assays, [^3H]-aldosterone (75-85 Ci/mmol) was purchased from New England Nuclear (Boston, MA), aldosterone was purchased from Sigma Chemical Co. (St. Louis, MO), CHAPS and DTT were purchased from Boehringer Mannheim GmbH (W. Germany) and all other reagents were purchased from Sigma.
The methods concerning growth, purification, and assays of recombinant viruses followed the protocol outlined by Summers, M.D., Smith, G.E., A Manual of Methods for Baculovirus Vectors and Insect Cell Culture Procedures, Tex. Agric. Exp. Stn. [Bull], 1987, No. 155, hereby incorporated by reference. The recombinant plasmids were cotransfected into SF21 cells with wild type AcNPV DNA, and the recombinant viruses were plaque purified.
A receptor extract was prepared from the baculovirus system, and aliquots were stored at -80 °C until used. Typical protein concentrations for these extracts were between 10 and 20 mg/ml. Stock solutions of aldosterone or other competing compounds were prepared as either 5 mM ethanol or DMSO stock solutions and serial dilutions were carried out in 1:1 DMSO-ethanol. The assay buffer consisted of the following: 25 mM sodium phosphate, 10 mM potassium fluoride, 20 mM sodium molybdate, 10% glycerol, 2 mM DTT and 0.25 mM CHAPS, pH=7.3 at room temperature.
Receptor assays were performed with a final volume of 250 µL containing from 50-75 µg of extract protein, plus 3-4 nM [^3H]-aldosterone and varying concentrations of competing ligand (0 to 10,000 nM). Assays were set up using a 96-well minitube system and incubations were carried out at 4 °C for 18 hours. Equilibrium under these conditions of buffer and temperature was achieved by 6-8 hours. Nonspecific binding was defined as that binding remaining in the presence of 1000 nM unlabeled aldosterone. At the end of the incubation period, 200 µL of 6.25% hydroxyapatite was added in wash buffer (binding buffer in the absence of DTT and CHAPS). Specific ligand binding to receptor was determined by a hydroxyapatite-binding assay according to the protocol outlined by Wecksler, W.R., Norman, A.W., An Hydroxylapatite Batch Assay for the Quantitation of 1α, 25-Dihydroxyvitamin D3-Receptor Complexes, Anal. Biochem. 1979, 92, 314-323, hereby incorporated by reference. Hydroxyapatite absorbs the receptor-ligand complex, allowing for the separation of bound from free radiolabeled ligand. The mixture was vortexed, incubated for 10 minutes at 4 °C, centrifuged, and the supernatant was removed. The hydroxyapatite pellet was washed twice more with the wash buffer. The amount of receptor-ligand complex was determined by liquid scintillation counting of the hydroxyapatite pellet after the addition of […] EcoScint A scintillation cocktail from National Diagnostics (Atlanta, GA.).
After correcting for nonspecific binding, IC50 values were determined. […] The IC50 values were determined graphically from a log-logit plot of the data. […] Standards are included in each assay and resulting Ki values are determined by use of a modified Cheng-Prusoff equation and used to calculate Ki values for "unknown analogs" as outlined by DeBlasi, A., O'Reilly, K., Motulsky, H.J., Calculating Receptor Number from Binding Experiments Using Same Compound As Radioligand and Competitor, TIPS 1989, 10.227-229, hereby incorporated by reference.

Turning to `CN(C)c1ccc(C(c2ccc(N(C)C)cc2)c2cc([N+](=O)[O-])ccc2Cl)cc1` [Example 1, 4',4" bis(dimethylamino)-2-chloro-5-nitrotriphenylmethane], the affinity corresponds to a Ki of 2900 nM.

`CNc1ccc(C(c2ccc(NC)cc2)c2cc([N+](=O)[O-])ccc2Cl)cc1` [Example 23, 4',4" bis(methylamino)-2-chloro-5-nitrotriphenylmethane]: the Ki (as a rule, the dissociation constant of the complex between target and ligand, obtained from inhibition or displacement) was over 10000 nM.

As for `CN(C)c1ccc(C(c2ccc(N(C)C)cc2)c2cc(Cl)ccc2Cl)cc1` [Example 24, 4',4" bis(dimethylamino)-2,5-dichlorotriphenylmethane], the Ki was found to be 2900 nM.

In turn, `CNc1ccc(C(c2ccc(NC)cc2)c2cc(Cl)ccc2Cl)cc1` [Example 27, 4',4" bis(methylamino)-2,5-dichlorotriphenylmethane] showed a Ki of over 10000 nM.

As for `CC(=O)OCCN(C)c1ccc(C(c2ccc(N(C)CCOC(C)=O)cc2)c2cc([N+](=O)[O-])ccc2Cl)cc1` [Example 31, 4',4" bis(N-(2-acetoxyethyl) N-methylamino)-2-chloro-5-nitrotriphenylmethane], the Ki was determined as 3910 nM.

With `CN(CCO)c1ccc(C(c2ccc(N(C)CCO)cc2)c2cc([N+](=O)[O-])ccc2Cl)cc1` [Example 32, 4',4" bis(N-(2-hydroxyethyl) N-methylamino)-2-chloro-5-nitrotriphenylmethane], the affinity corresponds to a Ki of 3910 nM.

Take `O=[N+]([O-])c1ccc(Cl)c(C(c2ccc(NCc3ccccc3)cc2)c2ccc(NCc3ccccc3)cc2)c1` [Example 36, 4',4" bis(N-benzylamino)-2-chloro-5-nitrotriphenylmethane]: the Ki came out at 2900 nM.

For the compound `CNc1ccc(C(c2ccc(N(C)C)cc2)c2cc([N+](=O)[O-])ccc2Cl)cc1` (stereo not shown) [Example 39, 4'-dimethylamino-4"-methylamino-2-chloro-5-nitrotriphenylmethane], the Ki stood at 2900 nM.

On to `CN(C)c1ccc(C(c2ccc(N(C)CCO)cc2)c2cc([N+](=O)[O-])ccc2Cl)cc1` (stereo not shown) [Example 42, 4'-dimethylamino-4"-(N-methyl-N-(2-hydroxyethyl)amino)-2-chloro-5-nitrotriphenylmethane], for which the Ki turned out to be 2900 nM.

`CNc1ccc(C(c2ccc(N(C)CCOC(C)=O)cc2)c2cc([N+](=O)[O-])ccc2Cl)cc1` (stereo not shown) [Example 49, 4'-methylamino-4"-(N-(2-acetoxyethyl)-N-methylamino)-2-chloro-5-nitrotriphenylmethane] had a Ki of 3910 nM.

For `CC(=O)OCCN(C)c1ccc(C(c2ccc(N(C)C)cc2)c2cc([N+](=O)[O-])ccc2Cl)cc1` (stereo not shown) [Example 51, 4'-dimethylamino-4"-(N-methyl-N-(2-acetoxyethyl)amino)-2-chloro-5-nitrotriphenylmethane], the Ki is over 10000 nM.

For `CN(C)c1ccc(C(Oc2ccccc2)c2cc([N+](=O)[O-])ccc2Cl)cc1` (stereo not shown) [Example 52, phenyl-[(4'-dimethylaminophenyl)-(2-chloro-5-nitrophenyl)methyl] ether], the affinity corresponds to a Ki of 3110 nM.

As to `CN(C)c1ccc(C(Sc2ccccc2)c2cc([N+](=O)[O-])ccc2Cl)cc1` (stereo not shown) [Example 54, phenyl-[(4'-dimethylaminophenyl)-(2-chloro-5-nitrophenyl)methyl]thioether], the affinity, expressed as Ki, was 2900 nM.
